{
  "source": "patent US8993741B2",
  "about": "“SMNdelta7 degron: novel compositions and methods of use” (The Trustees of the University of Pennsylvania, priority 2009, dated 2015)",
  "key": {"Luc-SMNΔ7": {"test_system": "Luc-SMNΔ7", "experiment": "Luc-SMNΔ7 degradation with proteolysis inhibitors in the presence of CHX", "type": "cell-based, human", "conditions": "for effect on decrease in Luc-SMNΔ7 signal: 5 hours in the presence of CHX", "procedure": "FIG. 5 is a graph depicting the effect of proteasome inhibitors on inhibiting SMNΔ7 degradation. Luciferase activity is measured after application of proteasome inhibitors (MG132 and Lactacystin), the calpain inhibitor (Calpeptin), the autophagy inhibitor (3-methyladenine; 3-MA), and the lysosomal inhibitor (ammonium chloride; NH4Cl) in the presence of CHX for 5 hours. Error bars represent SDs from three independent experiments.\n(§1) Cells (293T cells) were transfected with plasmids expressing various constructs including Luc-SMN, Luc-SMNΔ7, GFP-YG+EMLA or GFP-NS. Forty-eight hours after transfection, the cells were treated with CHX (0.1 mg/ml) for various times as indicated and then assayed for luciferase activity. Luciferase activity at each time point was calculated by comparison to those at time 0, which was set to 100%. Luciferase activities were measured using One-Glo reagent (Promega).\nSMN was previously shown to be degraded by the proteasome (Burnett et al., 2009, Mol Cell Biol 29(5):1107-15; Chang et al., 2004, Neurochem. Int. 45(7):1107-12). To determine if SMNΔ7 is also degraded by this system, cells expressing Luc-SMNΔ7 were treated with proteasome inhibitors including MG132 and Lactaeystin, for 5 hours in the presence of CHX. […] Inhibitors of other proteolytic activities, such as lysosomal proteases, autophagy, and calpain (N1-14Cl, 3-methyladenine, and calpeptin, respectively) had no effect."}, "S5 cells": {"test_system": "S5 cells", "experiment": "Rescue of S5 cell viability after tetracycline depletion of SMN", "type": "cell-based, chicken", "conditions": "retroviral expression, one week after tetracycline (1 μg/ml)", "procedure": "FIG. 4, comprising FIG. 4A through FIG. 4D, is a series of images depicting the functionality of SMNΔ7^S270A in snRNP assembly and its ability to rescue SMN-deficient cells. FIG. 4 A is a series of panels depicting S5 cells cultured in the presence of tetracycline (1 μg/ml) to deplete endogenous SMN and infected with retroviruses expressing SMN, SMNΔ7, or SMNΔ7^S270A. FIG. 4B is a graph depicting cell growth as in FIG. 4A measured by monitoring the number of live cells at the indicated time points following tetracycline addition. FIG. 4C depicts the results of Western blot analyses of SMN protein in rescued cells (10 days after tetracycline addition). FIG. 4D is a graph depicting SMN complex activity (%) as measured by in vitro snRNP assembly on U4 snRNA in cytoplasmic extracts from rescued cells, using U4ΔSm RNA as a control.\nS5 cells were maintained and infected with retroviruses expressing SMN, SMNΔ7, and SMNΔ7^S270A as described (Wang et al., 2001, J. Biol. Chem. 276:9599).\nTo determine whether SMNΔ7^S270A is a functional SMN protein, a previously established cell system, the S5 cell line, was used to investigate if SMNΔ7^S270A could rescue the viability of SMN-depleted cells. […]"}, "293T cells": {"test_system": "293T cells", "experiment": "Protein stability assay: luciferase activity of Luc-fused constructs after CHX treatment", "type": "cell-based", "source_text": "To construct plasmids expressing Luc-fused proteins, the luciferase gene was cloned into pcDNA3.1 vector at HindIII/KpnI sites, then DNA fragments encoding full-length wild type human SMN, SMNΔ7, several deletion mutants of SMNΔ7, and optiPEST were inserted into the KpnI/XhoI sites. SMNΔ7 mutants with single amino acid change were generated by mutating residues in YG+EMLA to alanine by Quickchange site-directed mutagenesis kit (Stratagene).\nas §1\nA reporter system that recapitulates the differential stability of full-length SMN and SMNΔ7 and allows quantitative assessment of SMNΔ7's instability determinants was developed. […] Forty-eight hours after transfection, cells were treated with the protein synthesis inhibitor cycloheximide (CHX), and luciferase activity was measured at time intervals of up to 10 hours. […]"}, "SMNΔ7": {"test_system": "SMNΔ7", "experiment": "MG132 effect on amount of HA-tagged SMNΔ7 (Western blot)", "type": "cell-based, human", "conditions": "10 μM MG132, 16 hours, 293T cells", "procedure": "(§2) FIG. 3, comprising FIG. 3A through FIG. 3D, is a series of images depicting the importance of residue S270 for the activity of the SMNΔ7-DEG through YG+EMLA. FIG. 3A is a schematic illustration depicting seven residues in the YG box that were each mutated to alanine, as indicated. […] depicts the results of Western blot analyses using an anti-HA tag antibody directed against HA-tagged SMN, SMNΔ7, and SMNΔ7^S270A expressed in 293T cells treated with DMSO or 10 μM MG132 (MG) for 16 hours. Fusion proteins were monitored by, and Magoh was used as a control. FIG. 3C is a graph depicting the quantification of HA-tagged proteins depicted in FIG. 3B and compared to HA-SMN without MG132 treatment. Protein amount (%) for SMNΔ7, and SMNΔ7^S270A are calculated relative to HA-SMN not treated with MG132, that is arbitrarily set to 100%. The fold change of each fusion protein amount upon MG132 treatment is indicated in red above the column. […]\n(§3) To identify specific residues in the SMN07-DEG that are important for its activity, mutagenesis of the YG box was performed wherein every second residue was converted to alanine in the context of full-length SMNΔ7 and determined the half-life of each in 293T cells. […] The levels of the tagged SMN proteins were then monitored by Western blots using anti-HA antibody (FIG. 3B)."}, "SMNΔ7^S270A": {"test_system": "SMNΔ7^S270A", "experiment": "MG132 effect on amount of HA-tagged SMNΔ7^S270A (Western blot)", "type": "cell-based, human", "conditions": "10 μM MG132, 16 hours, 293T cells", "procedure": "as §2, §3"}, "SMN": {"test_system": "SMN", "experiment": "MG132 effect on amount of HA-tagged SMN (Western blot)", "type": "cell-based, human", "conditions": "10 μM MG132, 16 hours, 293T cells", "procedure": "as §2, §3"}},
  "note": "Peptide text beside a SMILES is read from it. * marks the point of attachment. Cbz = O=C(OCc1ccccc1)*",
  "data": [
    {"compound": "Cn1cnc(N)c2ncnc1-2", "note": "[3-methyladenine]", "values": [
      {"measurement": "effect on decrease in Luc-SMNΔ7 signal", "setting": "Luc-SMNΔ7", "value": "no effect"}
    ]},
    {"compound": "SMN: full-length wild type human survival of motor neurons protein, tested as Luc- or HA-fusion or retrovirally expressed", "values": [
      {"measurement": "rescue of viability of SMN-depleted S5 cells", "setting": "S5 cells", "value": "rescued the viability of S5 cells"},
      {"measurement": "half-life (t1/2)", "setting": "293T cells; Luc fusion in 293T cells, CHX 0.1 mg/ml, up to 10 hours", "value": "> 8", "unit": "h"},
      {"measurement": "amount of SMN relative to SMNΔ7", "setting": "293T cells; after 10 hours of CHX chase", "value": 3, "unit": "times"}
    ]},
    {"compound": "Cl.N", "note": "[N1-14Cl, ammonium chloride]", "values": [
      {"measurement": "effect on decrease in Luc-SMNΔ7 signal", "setting": "Luc-SMNΔ7", "value": "no effect"}
    ]},
    {"compound": "CC(C)C[C@@H](C=O)NC(=O)[C@H](CC(C)C)NC(=O)[C@H](CC(C)C)NC(=O)OCc1ccccc1", "note": "[MG132] (Cbz-Leu-Leu-Leu-aldehyde)", "values": [
      {"measurement": "increase in the amount of SMNΔ7", "setting": "SMNΔ7", "value": 3.4, "unit": "fold"},
      {"measurement": "effect on the amount of SMNΔ7^S270A", "setting": "SMNΔ7^S270A", "value": "only a moderate effect"},
      {"measurement": "effect on decrease in Luc-SMNΔ7 signal", "setting": "Luc-SMNΔ7", "value": "much smaller decrease"},
      {"measurement": "effect on the amount of SMN", "setting": "SMN", "value": "only a moderate effect"}
    ]},
    {"compound": "CCCC[C@@H](C=O)NC(=O)[C@H](CC(C)C)NC(=O)OCc1ccccc1", "note": "[calpeptin]", "values": [
      {"measurement": "effect on decrease in Luc-SMNΔ7 signal", "setting": "Luc-SMNΔ7", "value": "no effect"}
    ]},
    {"compound": "C[C@@H]1C[C@@H]([C@H](O)CC2CC(=O)NC(=O)C2)C(=O)[C@@H](C)C1", "note": "[CHX, cycloheximide]", "values": [
      {"measurement": "decrease in signal (luciferase)", "setting": "Luc-SMNΔ7; CHX alone, 5 hours, cells expressing Luc-SMNΔ7", "value": 60, "unit": "%"}
    ]},
    {"compound": "CC(=O)N[C@@H](CSC(=O)[C@]1([C@@H](O)C(C)C)NC(=O)[C@H](C)[C@@H]1O)C(=O)O", "note": "[Lactacystin]", "values": [
      {"measurement": "effect on decrease in Luc-SMNΔ7 signal", "setting": "Luc-SMNΔ7", "value": "much smaller decrease"}
    ]}
  ]
}
